Test results taken from patent US8697747B2, “Enhancing coagulation or reducing fibrinolysis” (THe UAB Research Foundation, priority 2009, dated 2014).

Legend:
[1] = test system: factor VIII deficient plasma; experiment: Thrombelastography, factor VIII deficient plasma; format: biochemical, human; conditions: FVIII deficient plasma, 11 individuals, mean ± SD
Experimental: Plasma deficient (<1% normal activity) in factor VIII (FVIII; 11 individuals), factor IX (FIX; 5 individuals), or factor VII (FVII; 4 individuals) was obtained from anonymous donors (George King Bio-Medical, Overland Park, Kans.) and was anticoagulated with sodium citrate. The final volume for all subsequently described plasma sample mixtures was […]. Sample composition consisted of […] of plasma, […] of tissue factor (0.1% final concentration in 0.9% NaCl; Diagnostica Stago, Asnieres, France), 3.6 mL of dimethyl sulfoxide (DMSO) or DMSO with CORM-2 ([…]; Sigma-Aldrich, St. Louis, Mo.), and 20 mL of […] CaCl2. […] (Motterlini et al. 2005). While CORM-2 decays slowly in DMSO, DMSO was added to the dry compound just prior to placement into the plasma mixture.
Plasma sample mixtures were placed in a disposable cup in a computer-controlled THROMBELASTOGRAPH® hemostasis system (Model 5000; Haemoscope Corp., Niles, Ill.), with addition of CaCl2 as the last step to initiate clotting. Data were collected until clot strength stabilized (maximum amplitude).
Statistical analyses. […] A paired student's t-test was used to analyze the effects of CORM-2 exposure in FVIII deficient individuals. The results of the FIX and FVII deficient groups were presented but not statistically analyzed secondary to the small number of individuals in each cohort. […] Statistical analyses and graphical representation of the data were generated with commercially available software (SigmaPlot 11.0; Systat Software Inc., San Jose, Calif.; CorelDRAW 12.0; Corel Corp., Ottawa, Ontario, Canada). A P value of less than 0.05 was considered significant.

[2] = test system: prothrombin deficient plasma; experiment: Thrombelastography in prothrombin deficient plasma with purified prothrombin; format: biochemical, human; conditions: mean ± SD
Experimental: Plasma types, purified proteins and compounds. Prothrombin deficient plasma (George King Bio-Medical, Overland Park, Kans.) anticoagulated with sodium citrate was utilized for experimentation concerning the effects of CORM-2 on prothrombin. Purified prothrombin (Enzyme Research Laboratories, South Bend, Ind.) that was 95% pure (10.4 mg/mL, 11.1 U/mg, suspended in 20 mM Tris-HCl in 0.1M NaCl at pH 7.4) was used for experimentation. Fibrinogen deficient plasma (Affinity Biologicals, Inc., Ancaster, Ontario, Canada) anticoagulated with sodium citrate was used in experiments investigating the effects of CORM-2 on fibrinogen. […] CORM-2 and dimethyl sulfoxide (DMSO) were obtained from Sigma-Aldrich, St. Louis, Mo.
Exposure of purified prothrombin to CORM-2. In order to determine if pre-exposure of prothrombin with CORM-2 would enhance coagulation kinetics in prothrombin deficient plasma, 396 μL of pure prothrombin solution was combined with 4 μL of either DMSO or CORM-2 in DMSO for a final concentration of 0 or 100 μM CORM-2. This solution was incubated for 5 min at 37° C. prior to being added to prothrombin deficient plasma for thrombelastographic analyses. A volume of 3.1 μL of incubated solution was added to the final reaction mixture subsequently presented for a final prothrombin activity of 1 U/mL.
Prothrombin deficient plasma experiments. The final volume for experiments involving prothrombin deficient plasma was 359.1-360.7 μL. In experiments involving pre-exposure of prothrombin to 0 or 100 μM CORM-2 (n=7 per concentration), the sample consisted of 326 μL of prothrombin deficient plasma, 3.1 μL of prothrombin solution, 10 μL of tissue factor reagent (0.1% final concentration in dH2O; Instrumentation Laboratory, Lexington, Mass.), and 20 μL of 200 mM CaCl2. In experiments involving simple CORM-2 addition (positive control) to the reactants, the sample mixture consisted of 324 μL of prothrombin deficient plasma, 3.1 μL of prothrombin solution, 3.6 μL of DMSO or CORM-2 in DMSO (final CORM-2 concentration 0 or 100 μM, n=8 per concentration), 10 μL of tissue factor reagent (0.1% final concentration), and 20 μl of 200 mM CaCl2.
Thrombelastographic monitoring. Plasma sample mixtures were placed in a disposable cup in a computer-controlled THROMBELASTOGRAPH® hemostasis system (Model 5000, Haemoscope Corp., Niles, Ill.), with addition of CaCl2 as the last step to initiate clotting. Data were collected until clot strength stabilized. The following previously described variables (Examples 1-3) were determined at 37° C.: Time to maximum rate of thrombus generation (TMRTG): This is the time interval (sec) observed prior to maximum speed of clot growth. Maximum rate of thrombus generation (MRTG): This is the maximum velocity of clot growth observed (dynes/cm^2/sec). Total Thrombus Generation (TTG): This is the total area under the velocity curve during clot growth (dynes/cm^2), representing the amount of clot strength generated during clot growth.
Statistical Analyses. Data obtained from experiments involving prothrombin deficient plasma are presented as mean±SD. Typically, n=6-8 provides statistical power >0.8 in similar analyses (Examples 1 and 2). Analyses of the effects of CORM-2 on thrombelastographic variables were conducted using unpaired, two-tailed Student's t-tests. A P value of <0.05 was considered significant. Graphical representation of the thrombelastographic data derived from experiments with […] deficient plasma was generated with commercially available software (SigmaPlot 11.0, Systat Software, Inc., San Jose, Calif.). Coagulation kinetic model equations were derived with the same software. The difference between the mean values of MRTG or TTG in samples exposed to 0 or 100 μM CORM-2 were determined and expressed as percent difference secondary to CORM-2 exposure in the […] deficient plasma experiments.

[3] = 100 μM CORM-2 added to prothrombin deficient plasma mixed with prothrombin, n=8
[4] = purified prothrombin pre-exposed to 100 μM CORM-2, then added to prothrombin deficient plasma, n=7

Compound: [C-]#[O+].[C-]#[O+].[C-]#[O+].[C-]#[O+].[C-]#[O+].[C-]#[O+].[Cl][Ru][Cl].[Cl][Ru][Cl] [CORM-2, tricarbonyldichlororuthenium (II) dimer]
- TMRTG (time to maximum rate of thrombus generation) ([1]; 100 mmol CORM-2): 4.0 ± 2.3 min
- TTG (total thrombus generation) ([1]; 100 mmol CORM-2): 232±56 dynes/cm^2
- MRTG (maximum rate of thrombus generation) ([1]; CORM-2): 5.0±2.7 dynes/cm^2/sec
- MRTG (maximum rate of thrombus generation) [2, 3]: 9.17 ± 0.36 dynes/cm^2/sec
- TMRTG (time to maximum rate of thrombus generation) [2, 3]: 1.85 ± 0.04 min
- TTG (total thrombus generation) [2, 3]: 152 ± 7 dynes/cm^2
- MRTG (maximum rate of thrombus generation) [2, 4]: 4.65 ± 0.99 dynes/cm^2/sec
- TMRTG (time to maximum rate of thrombus generation) [2, 4]: 2.15 ± 0.56 min
- TTG (total thrombus generation) [2, 4]: 88 ± 3 dynes/cm^2
